Reference: patent US20160057994A1, “Aplatelet Clays for Sustained Release of Active Ingredients” (BioGuard Research and Development, Inc., priority 2013, published 2016)

Key:
[1] = Accelerated flow-device release test of injection molded sheets; type: physicochemical
Procedure: Injection molded samples (Table 3) were prepared using a Model 45 MINI-JECTOR (Mini-Jector Machinery Corp., Newbury, Ohio). The mold to be used produces test sheets that were 7.5×5 cm and 1 mm thick. The polyethylene used was powdered Quantum Microthene (XU594, 35 mesh). The polymer was mixed with the aplatelet clay or aplatelet nanoclay to provide a final ratio of 2 parts trifluralin to 20 parts polymer (24 gm load for each injection). For the PE, the injector is set up to melt the mixture at 127° C., with the injection nozzle heated to 138° C. Polypropylene is melted and injected at 163° C.
These sheets were washed in 90% MeOH to remove surface TFN contamination and placed into a flow device that exposes the sample to water that contains 0.01% Tween 20 and 0.5% MeOH. The system is operated at room temperature (ca. 23° C.). These conditions are used as an accelerated test in which 24 hours represents 2-3 years of exposure in the environment. During the first few hours, the release rate is high, usually over 100 μg/cm^2/day.

[2] = Accelerated flow-device release test of extruded/spun fibers; type: physicochemical; settings: trifluralin/nanoclay/polypropylene fiber material, water with 0.01% Tween 20, ca. 23° C.
Procedure: For extrusion and spinning of fibers, the trifluralin-loaded nanoclay is prepared from batches containing 3500 grams of trifluralin and 5476 grams of the nanoclay by the method described in Example 1. The particle size requirement is that the sample pass through a #60 U.S. Sieve (<250 microns). The loading of the trifuralin/nanoclay/polypropylene fiber material in a polyester matrix that is adjusted to provide between 4 and 8% TFN (w/w) for the first fiber run, and 3% TFN (w/w) for the second test run. Pelletized PP material is used for the extrusion and spinning of fibers.
These samples are placed in a flow device that exposed the sample to water that contains 0.01% Tween 20. It is operated at room temperature (ca. 23° C.). These conditions are used as an accelerated test in which 24 hours represents 2 or 3 years of exposure in the environment. This correlation is based on the slope of Arrenhius plots over a temperature range of 10° C. to 50° C. similar systems. During the first few hours, the release rate is high, usually over 100 μg/cm^2/day. The test is continued until the release rate reaches the steady state.

CCCN(CCC)c1c([N+](=O)[O-])cc(C(F)(F)F)cc1[N+](=O)[O-] [trifluralin, Trifluralin]
release rate during the first few hours ([1]; injection molded polymer sheets with trifluralin-loaded aplatelet clay or nanoclay, water with 0.01% Tween 20 and 0.5% MeOH, ca. 23° C., first few hours): over 100 μg/cm^2/day | rate of trifluralin release from polypropylene relative to standard polyethylene ([1]; polypropylene matrix versus standard polyethylene): ≥ 2% | release rate during the first few hours [2]: over 100 μg/cm^2/day
